# In PubChem BioAssay (NCI):
#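 48-hour exposure; five concentrations; linearly interpolated endpoints. GI50 marks 50% less growth. TGI: concentration producing complete growth inhibition.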
# How the values were obtained:
# Experiment in all cases: inhibition of tumour cell growth, NCI panel, 48 h
# CCRF-CEM leukemia = system: CCRF-CEM leukemia
# HCT-15 colon = system: HCT-15 colon
# HOP-92 NSCLC = system: HOP-92 NSCLC
# IGROV1 ovarian = system: IGROV1 ovarian
# MALME-3M melanoma = system: MALME-3M melanoma
# OVCAR-8 ovarian = system: OVCAR-8 ovarian
# RXF 393 renal = system: RXF 393 renal
# SF-539 CNS = system: SF-539 CNS
# NCI-H522 lung = system: NCI-H522 lung
# NCI/ADR-RES ovarian = system: NCI/ADR-RES ovarian
SMILES,TGI (CCRF-CEM leukemia) [µM],TGI (HCT-15 colon) [µM],TGI (HOP-92 NSCLC) [µM],TGI (IGROV1 ovarian) [µM],TGI (MALME-3M melanoma) [µM],TGI (OVCAR-8 ovarian) [µM],TGI (RXF 393 renal) [µM],TGI (SF-539 CNS) [µM],GI50 (CCRF-CEM leukemia) [µM],GI50 (HCT-15 colon) [µM],GI50 (HOP-92 NSCLC) [µM],GI50 (IGROV1 ovarian) [µM],GI50 (MALME-3M melanoma) [µM],GI50 (NCI-H522 lung) [µM],TGI (NCI-H522 lung) [µM],GI50 (NCI/ADR-RES ovarian) [µM],TGI (NCI/ADR-RES ovarian) [µM],GI50 (OVCAR-8 ovarian) [µM],GI50 (SF-539 CNS) [µM],GI50 (RXF 393 renal) [µM]
Cc1ccc(C2=NO[C@@H]3C(=O)N(c4ccc(Cc5ccc(N6C(=O)[C@H]7C(c8ccc(C)cc8)=NO[C@H]7C6=O)cc5)cc4)C(=O)[C@H]23)cc1,> 100,> 100,> 100,> 100,> 100,> 100,> 100,> 100,–,–,–,–,–,–,–,–,–,–,–,–
Cc1cc(C)nc(SC2=C(Nc3cccc(Cl)c3)C(=O)N(Cc3ccccc3)C2=O)n1,> 170,> 170,> 170,> 170,> 170,> 170,–,> 170,> 170,> 170,> 170,> 170,> 170,> 170,> 170,> 170,> 170,> 170,> 170,–
O=C1c2ccccc2C(=O)c2nc(-c3ccccc3)c(-c3ccccc3)nc21,> 100,> 100,> 100,–,> 100,> 100,> 100,> 100,–,–,–,–,–,–,> 100,–,–,–,–,–
Cn1c2cccc3nnc4cccc(c4c32)n1C,> 100,> 100,> 100,> 100,> 100,> 100,> 100,> 100,–,–,–,–,–,–,–,–,–,–,–,–
COC(=O)C1C(=O)O[C@@H](c2ccc(OC)cc2OC)C1C(=O)OC (stereo not given in full),> 100,> 100,> 100,> 100,> 100,> 100,> 100,> 100,–,–,–,–,–,–,–,–,–,–,–,–
O=C(CC(=O)C(F)(F)F)c1csc2ccccc12,> 100,> 100,–,> 100,67.6,60.2,–,> 100,–,–,–,–,–,–,> 100,–,–,–,–,–
O=C(C=Nc1ccccc1C(=O)[O-])c1cccs1.O=C(C=Nc1ccccc1C(=O)[O-])c1cccs1.[Cu+2],> 10,> 100,> 100,> 100,> 100,> 100,–,–,–,–,–,–,–,–,> 100,–,–,–,–,–
CC(=O)Nc1ccc(/C=C/C(=O)c2sc(C(N)=S)nc2C)cc1,> 100,> 100,> 100,> 100,> 100,> 100,> 100,> 100,–,–,–,–,–,–,> 100,–,–,–,–,–
COc1cc(-c2nc3ccccc3s2)ccc1OCc1nc2n(n1)S(=O)(=O)c1ccccc1N2C,> 100,> 100,> 100,> 100,> 100,> 100,–,> 100,> 100,> 100,43.9,> 100,> 100,96.8,> 100,> 100,> 100,> 100,> 100,–
Cc1ncc([N+](=O)[O-])n1CCNC(=O)CCn1ccnc1[N+](=O)[O-],> 100,> 100,–,> 100,> 100,> 100,–,> 100,–,–,–,–,–,–,> 100,–,> 100,–,–,–
CC1OC(O)CC(OC(=O)c2ccccc2)C1OC(=O)c1ccccc1 (stereo not given),38.2,29.3,35,> 100,30.2,31.6,39.3,31.7,–,–,–,–,–,–,> 100,–,–,–,–,–
O=C(/C=C/c1ccccc1)CCC1C(=O)NC(=O)NC1=O,–,> 100,> 100,> 100,> 100,> 100,–,> 100,–,–,–,–,–,–,> 100,–,> 100,–,–,–
CC[C@H](C)C(=O)O[C@H]1CCC=C2C=C[C@H](C)C(CCC3C[C@@H](O)CC(=O)O3)[C@H]21 (stereo not given in full),> 100,> 100,5.59,–,–,> 100,24.4,> 100,> 100,4.83,0.236,–,–,–,–,2.3,> 100,3.78,83.2,3.65
CCOC(=O)c1c(Cl)c2c(n1Cc1cc(OC)cc(OC)c1)-c1oncc1CCC2,> 100,> 100,28.6,> 54.8,–,> 100,6.03,–,0.295,0.387,0.335,0.317,0.118,0.0304,0.195,0.227,> 61.6,0.479,–,0.201
COc1ccccc1NC(=O)C1=C(C)NC(C)=C(C(=O)Nc2ccccc2OC)C1c1ccccc1OC,> 100,> 100,> 100,> 100,> 100,> 100,–,> 100,–,–,–,–,–,–,> 100,–,–,–,–,–
CCN(CC)CCOc1cc2c(C(=O)OC)c(C)oc2cc1C(C)=O,7.59,22.7,–,33,–,30.3,41,–,2.92,10.5,–,8.53,–,13.2,> 100,13.6,26.6,13.4,–,17.9
NC(=S)N/N=C(/C(=O)Nc1nc2ccc([N+](=O)[O-])cc2s1)C1C(=O)NC(=S)NC1=O,> 100,> 100,> 100,–,–,> 100,> 100,> 100,–,–,–,–,–,–,–,–,> 100,–,–,–
O=S1c2ccc(Cl)cc2CC(SSC2Cc3cc(Cl)ccc3S(=O)c3ccccc32)c2ccccc21 (stereo not given),> 100,–,> 100,> 100,> 100,> 100,> 100,> 100,–,–,–,–,–,–,> 100,–,–,–,–,–
COC(=O)C1=CC2OC13CC1CCC3(C2=O)C1(C)C (stereo not given),14.6,18.9,–,39.9,28.5,23.8,25.8,27.3,–,–,–,–,–,–,9.37,–,–,–,–,–
COC(=O)C1=CC2OC1(C)C1(CC1)C2=O (stereo not given),23.2,40,–,35.9,27.8,31.3,28.9,32.1,–,–,–,–,–,–,20.7,–,–,–,–,–
